Assay results: patent US8653100B2 (AbbVie Inc., priority 2008, dated 2014)
Counter-ions that a name gives are not always drawn.

Key:
human GlyT1c = human GlyT1c (Homo sapiens (Human), UniProt P48067); assay: [3H]-Glycine uptake into recombinant CHO cells expressing human GlyT1; assay type: cell-based; conditions: hGlyT1c_5_CHO cells, 200 nM [3H]-glycine
Experimental: [^3H]-Glycine uptake into recombinant CHO cells expressing human GlyT1: Human GlyT1c expressing recombinant hGlyT1c—5_CHO cells were plated at 20,000 cells per well in 96 well Cytostar-T scintillation microplates (Amersham Biosciences) and cultured to sub-confluency for 24 h. […] The plates were placed in a Wallac Microbeta (PerkinElmer) and continuously counted by solid phase scintillation spectrometry during up to 3 hours. […] IC50 calculations were made by four-parametric logistic nonlinear regression analysis (GraphPad Prism) using determinations within the range of linear increase of [^3H]-glycine incorporation between 60 and 120 min.

human GlyT1c transporter = human GlyT1c transporter (Homo sapiens (Human), UniProt P48067); assay: Radioligand binding assay using recombinant CHO cell membranes expressing human GlyT1; conditions: examples 88-204, radioligand not specified by footnote, read-out: radioligand binding Kiapp
human GlyT1c transporter, sequence (P48067 whole entry): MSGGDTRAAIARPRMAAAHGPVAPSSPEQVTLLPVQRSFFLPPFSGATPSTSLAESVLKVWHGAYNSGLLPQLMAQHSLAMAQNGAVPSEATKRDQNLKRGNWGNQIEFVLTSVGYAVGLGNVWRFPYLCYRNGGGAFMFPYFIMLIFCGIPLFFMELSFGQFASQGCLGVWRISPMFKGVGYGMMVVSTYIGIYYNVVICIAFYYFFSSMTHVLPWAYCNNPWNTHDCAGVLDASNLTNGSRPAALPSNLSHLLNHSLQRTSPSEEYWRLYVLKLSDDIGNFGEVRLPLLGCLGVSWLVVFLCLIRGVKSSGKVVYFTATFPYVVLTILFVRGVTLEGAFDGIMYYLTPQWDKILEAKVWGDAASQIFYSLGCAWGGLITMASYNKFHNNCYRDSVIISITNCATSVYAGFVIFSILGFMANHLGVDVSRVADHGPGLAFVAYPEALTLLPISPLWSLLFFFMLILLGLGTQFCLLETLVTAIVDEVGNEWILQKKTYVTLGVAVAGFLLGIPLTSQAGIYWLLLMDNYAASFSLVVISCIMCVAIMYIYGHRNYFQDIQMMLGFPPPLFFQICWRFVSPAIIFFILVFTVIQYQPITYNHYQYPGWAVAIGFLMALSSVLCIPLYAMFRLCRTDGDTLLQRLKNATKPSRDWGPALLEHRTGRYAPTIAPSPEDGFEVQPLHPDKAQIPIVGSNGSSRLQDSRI
How it was run: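 Competition binding of [^3H]-(R)-NPTS (0.5 nM) to CHO membranes expressing human GlyT1c (50 μg/ml protein) in pH 7.5 Hepes/NaCl buffer with 1% DMSO, 1 h at room temperature. Non-specific binding defined with 10 μM Org24598; filtration and scintillation counting, one-site fit, Ki via Cheng-Prusoff.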

human GlyT1c, sequence (P48067 whole entry): as above

SMILES | IC50 (human GlyT1c) | Ki (human GlyT1c transporter)
CC(C)C(=O)NCCOc1ccc2c(c1)C(C1(c3ccc(Cl)cc3)CCC1)NCC2 (centres unmarked) [Example 5, N-(2-{1-[1-(4-Chloro-phenyl)-cyclobutyl]-1,2,3,4-tetrahydro-isoquinolin-7-yloxy}-ethyl)-isobutyramide] | ≤ 100 µM | –
O=C(NCCOc1ccc2c(c1)C(C1(c3ccc(Cl)cc3)CCC1)NCC2)Nc1ccccc1 (centres unmarked) [Example 34, hydrochloride] | ≤ 10 µM | –
Cn1cc(S(=O)(=O)NCCOc2ccc3c(c2)C(C2(c4ccc(Cl)cc4)CCC2)NCC3)cn1 (centres unmarked) [Example 37, 1-Methyl-1H-pyrazole-4-sulfonic acid (2-{1-[1-(4-chloro-phenyl)-cyclobutyl]-1,2,3,4-tetrahydro-isoquinolin-7-yloxy}-ethyl)-amide hydrochloride] | ≤ 0.1 µM | –
CC(C)S(=O)(=O)NCCOc1ccc2c(c1)C(C1(c3ccc(Cl)cc3)CCC1)NCC2 (centres unmarked) [Example 38, Propane-2-sulfonic acid (2-{1-[1-(4-chloro-phenyl)-cyclobutyl]-1,2,3,4-tetrahydro-isoquinolin-7-yloxy}-ethyl)-amide hydrochloride] | ≤ 0.1 µM | –
CCCCS(=O)(=O)NCCOc1ccc2c(c1)C(C1(c3ccc(Cl)cc3)CCC1)N(C(=O)NCC)CC2 (centres unmarked) [Example 39, 7-[2-(Butane-1-sulfonylamino)-ethoxy]-1-[1-(4-chloro-phenyl)-cyclobutyl]-3,4-dihydro-1H-isoquinoline-2-carboxylic acid ethylamide hydrochloride] | ≤ 100 µM | –
Cn1cc(S(=O)(=O)NCCOc2ccc3c(c2)C(C2(c4ccc(Cl)cc4)CC(F)(F)C2)NCC3)cn1 (centres unmarked) [Example 43, 1-Methyl-1H-pyrazole-4-sulfonic acid (2-{1-[1-(4-chloro-phenyl)-3,3-difluoro-cyclobutyl]-1,2,3,4-tetrahydro-isoquinolin-7-yloxy}-ethyl)-amidehydrochloride] | ≤ 0.1 µM | –
CCCS(=O)(=O)NCCOc1ccc2c(c1)C(C1(c3ccc(Cl)cc3)CC(F)(F)C1)NCC2 (centres unmarked) [Example 44, Propane-1-sulfonic acid (2-{1-[1-(4-chloro-phenyl)-3,3-difluoro-cyclobutyl]-1,2,3,4-tetrahydro-isoquinolin-7-yloxy}-ethyl)-amide hydrochloride] | ≤ 0.1 µM | –
CCCS(=O)(=O)NCCOc1ccc2c(c1)C(C1(c3ccc(Cl)cc3)CCC1)N(C(=N)NC#N)CC2 (centres unmarked) [Example 46, 1-(1-(4-Chlorophenyl)cyclobutyl)-N-cyano-7-(2-(propylsulfonamido)ethoxy)-3,4-dihydroisoquinoline-2(1H)-carboximidamide] | ≤ 1 µM | –
O=S(=O)(NCCOc1ccc2c(c1)C(C1(c3ccc(Cl)cc3)CCC1)NCC2)c1ccc(N2CCOCC2)nc1 (centres unmarked) [Example 189, N-[2-({1-[1-(4-Chlorophenyl)cyclobutyl]-1,2,3,4-tetrahydroisoquinolin-7-yl}oxy)ethyl]-6-(morpholin-4-yl)pyridine-3-sulfonamide hydrochloride] | – | ≤ 10 µM
O=S(=O)(NCCOc1ccc2c(c1)C(C1(c3ccc(Cl)cc3)CCC1)NCC2)C1CCNCC1 (centres unmarked) [Example 190, N-[2-({1-[1-(4-Chlorophenyl)cyclobutyl]-1,2,3,4-tetrahydroisoquinolin-7-yl}oxy)ethyl]piperidine-4-sulfonamide dihydrochloride] | – | ≤ 10 µM
NC(=O)Nc1ccc(S(=O)(=O)NCCOc2ccc3c(c2)C(C2(c4ccc(Cl)cc4)CCC2)NCC3)cc1 (centres unmarked) [Example 191, 4-(Carbamoylamino)-N-[2-({1-[1-(4-chlorophenyl)cyclobutyl]-1,2,3,4-tetrahydroisoquinolin-7-yl}oxy)ethyl]benzenesulfonamide hydrochloride] | – | ≤ 10 µM
O=S(=O)(NCCOc1ccc2c(c1)C(C1(c3ccc(Cl)cc3)CCC1)NCC2)c1ncn[nH]1 (centres unmarked) [Example 199, N-[2-({1-[1-(4-Chlorophenyl)cyclobutyl]-1,2,3,4-tetrahydroisoquinolin-7-yl}oxy)ethyl]-1H-1,2,4-triazole-5-sulfonamide] | – | ≤ 10 µM
Nc1n[nH]c(S(=O)(=O)NCCOc2ccc3c(c2)C(C2(c4ccc(Cl)cc4)CCC2)NCC3)n1 (centres unmarked) [Example 203, 3-Amino-N-[2-({1-[1-(4-chlorophenyl)cyclobutyl]-1,2,3,4-tetrahydroisoquinolin-7-yl}oxy)ethyl]-1H-1,2,4-triazole-5-sulfonamide dihydrochloride] | – | ≤ 100 µM
O=S(=O)(NCCOc1ccc2c(c1)C(C1(c3ccc(Cl)cc3)CCC1)NCC2)c1ncn[nH]1 (centres unmarked) [Example 204, N-[2-({1-[1-(4-Chlorophenyl)cyclobutyl]-1,2,3,4-tetrahydroisoquinolin-7-yl}oxy)ethyl]-1H-1,2,4-triazole-5-sulfonamide] | – | ≤ 100 µM

The remaining lines, values ahead:

IC50 (human GlyT1c) | Ki (human GlyT1c transporter) | SMILES
≤ 10 µM | – | O=C(NCCOc1ccc2c(c1)C(C1(c3ccc(Cl)cc3)CCC1)NCC2)c1ccccc1 (centres unmarked) [Example 3, N-(2-{1-[1-(4-Chloro-phenyl)-cyclobutyl]-1,2,3,4-tetrahydro-isoquinolin-7-yloxy}-ethyl)-benzamide]
≤ 10 µM | – | CC(=O)NCCOc1ccc2c(c1)C(C1(c3ccc(Cl)cc3)CCC1)NCC2 (centres unmarked) [Example 6, N-(2-{1-[1-(4-Chloro-phenyl)-cyclobutyl]-1,2,3,4-tetrahydro-isoquinolin-7-yloxy}-ethyl)-acetamide]
≤ 10 µM | – | CCCNC(=O)NCCOc1ccc2c(c1)C(C1(c3ccc(Cl)cc3)CCC1)NCC2 (centres unmarked) [Example 33, 1-(2-{1-[1-(4-Chloro-phenyl)-cyclobutyl]-1,2,3,4-tetrahydro-isoquinolin-7-yloxy}-ethyl)-3-propyl-urea hydrochloride]
≤ 1 µM | – | Cc1nn(C)cc1S(=O)(=O)NCCOc1ccc2c(c1)C(C1(c3ccc(Cl)cc3)CCC1)NCC2 (centres unmarked) [Example 35, 1,3-Dimethyl-1H-pyrazole-4-sulfonic acid (2-{1-[1-(4-chloro-phenyl)-cyclobutyl]-1,2,3,4-tetrahydro-isoquinolin-7-yloxy}-ethyl)-amide hydrochloride]
≤ 100 µM | – | CC(C)NC(=O)NCCOc1ccc2c(c1)C(C1(c3ccc(Cl)cc3)CCC1)NCC2 (centres unmarked) [Example 36, 1-(2-{1-[1-(4-Chloro-phenyl)-cyclobutyl]-1,2,3,4-tetrahydro-isoquinolin-7-yloxy}-ethyl)-3-isopropyl-urea hydrochloride]
≤ 1 µM | – | CCCCS(=O)(=O)NCCOc1ccc2c(c1)C(C1(c3ccc(Cl)cc3)CCC1)N(C)CC2 (centres unmarked) [Example 40, Butane-1-sulfonic acid (2-{1-[1-(4-chloro-phenyl)-cyclobutyl]-2-methyl-1,2,3,4-tetrahydro-isoquinolin-7-yloxy}-ethyl)-amide]
≤ 100 µM | – | CCS(=O)(=O)N1CCN(c2ccc3c(c2)C(C2(c4ccc(Cl)cc4)CCC2)NCC3)CC1 (centres unmarked) [Example 41, 1-[1-(4-Chloro-phenyl)-cyclobutyl]-7-(4-ethanesulfonyl-piperazin-1-yl)-1,2,3,4-tetrahydro-isoquinoline]
≤ 100 µM | – | O=C(NCCOc1ccc2c(c1)C(C1(c3ccc(Cl)cc3)CCC1)NCC2)Nc1cccnc1 (centres unmarked) [Example 42, 1-(2-{1-[1-(4-Chloro-phenyl)-cyclobutyl]-1,2,3,4-tetrahydro-isoquinolin-7-yloxy}-ethyl)-3-pyridin-3-yl-urea hydrochloride]
≤ 1 µM | – | CCCS(=O)(=O)NCCN(CCOc1ccc2c(c1)C(C1(c3ccc(Cl)cc3)CCC1)NCC2)S(=O)(=O)CCC (centres unmarked) [Example 45, Propane-1-sulfonic acid (2-{1-[1-(4-chloro-phenyl)-cyclobutyl]-1,2,3,4-tetrahydro-isoquinolin-7-yloxy}-ethyl)-[2-(propane-1-sulfonylamino)-ethyl]amide]
